# Measurements from PMC8818024 (Structure (London, England : 1993), 2021).
# “Also recorded” adds a separate entry of the source.
# Columns and labels:
# Arr1 = Arr1 (Bos taurus, UniProt P08168); assay: Tyrosine fluorescence quenching assay of Arr1; format: binding, bovine; conditions: intrinsic quenching assay, no Mg2+; Figure 6E-F, Table S1
# bovine arrestin-1 = assay: cwEPR of spin-labeled arrestin C-tail mutants; conditions: spin-labeled Arr1 mutants, room temperature, compared with apo-Arr1; Figure 3D
# Sequence of Arr1 (P08168 whole entry): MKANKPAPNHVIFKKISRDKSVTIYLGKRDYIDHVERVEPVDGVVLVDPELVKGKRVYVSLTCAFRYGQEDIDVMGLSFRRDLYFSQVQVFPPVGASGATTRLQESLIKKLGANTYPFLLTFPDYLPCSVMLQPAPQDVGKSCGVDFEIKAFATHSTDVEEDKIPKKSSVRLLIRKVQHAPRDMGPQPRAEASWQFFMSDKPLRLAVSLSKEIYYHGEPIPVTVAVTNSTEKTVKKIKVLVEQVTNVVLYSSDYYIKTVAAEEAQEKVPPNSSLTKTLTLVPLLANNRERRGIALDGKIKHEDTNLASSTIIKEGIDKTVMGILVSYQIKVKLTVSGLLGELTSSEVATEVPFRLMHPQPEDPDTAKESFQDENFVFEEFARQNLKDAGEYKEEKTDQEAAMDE
structure (smiles),measurement,setting,value
"O=P(O)(O)O[C@@H]1[C@H](O)[C@H](O)[C@@H](OP(=O)(O)O)[C@H](OP(=O)(O)O)[C@H]1O [InsP3, (1,4,5) myo-D-inositol triphosphate]",relative affinity for Arr1 (in words),Arr1,somewhat lower affinity; also recorded: lower relative affinity
same,C-tail flexibility by cwEPR (sites T396 and A401),bovine arrestin-1,slightly more flexibility than InsP6
